Data: patent EP2070923A1, “Insecticide iminoheterocycles” (priority 2007, dated 2009)
Like-named read-outs stand apart in the source and are kept apart here.

Assays:
logP (HCOOH) = conditions: hplc, formic acid
Myzus persicae = assay: Myzus test (spray treatment); assay type: in vivo; conditions: foliar, read-out: Wirkung
Description: Myzus-Test (Spritzbehandlung)
Zur Herstellung einer zweckmäßigen Wirkstoffzubereitung vermischt man 1 Gewichtsteil Wirkstoff mit den angegebenen Mengen Lösungsmittel und Emulgator und verdünnt das Konzentrat mit emulgatorhaltigem Wasser auf die gewünschte Konzentration. Chinakohlblattscheiben (Brassica pekinensis), die von allen Stadien der Grünen Pfirsichblattlaus (Myzus persicae) befallen sind, werden mit einer Wirkstoffzubereitung der gewünschten Konzentration gespritzt. Nach der gewünschten Zeit wird die Wirkung in % bestimmt. Dabei bedeutet 100 %, dass alle Blattläuse abgetötet wurden; 0 % bedeutet, dass keine Blattläuse abgetötet wurden. Bei diesem Test zeigen z. B. die folgenden Verbindungen der Herstellungsbeispiele eine Wirkung von ≥ 80 % bei einer Aufwandmenge von 500 g/ha: • Bsp. Nr. 2, 3, 31, 32, 33, 36, 37, 39, 40, 41, 42, 43, 44, 45, 46, 63, 64, 65, 66, 86, 87, 88, 90, 95, 96, 97, 99, 103

[1] = 500 g/ha, spray on Brassica pekinensis leaf discs, 100 % = all aphids killed

Structure (SMILES) | chromatographic logP (logP (HCOOH)) | mortality at 500 g/ha (Myzus persicae; [1]) | mortality at 500 g/ha (Myzus persicae; in Brassica rapa)
CCC(N=C1OCCN1C(=O)NCCCl)c1ccc(C(F)(F)F)cn1 (stereo not drawn) [Beispiel 5] | 2.15 |  | 
CCC(N=C1OCCN1C(=O)NCCCl)c1ccc(C)c(C)n1 (stereo not drawn) [Beispiel 9] | 1.18 |  | 
COCCNC(=S)N1CCOC1=NCc1ccsc1 [Beispiel 34] | 2.71 |  | 
CNC(=S)N1CCOC1=NCc1ccsc1 [Beispiel 35] | 1.83 |  | 
CNC(=S)N1CCOC1=NCc1cccs1 [Beispiel 40] | 2.45 | ≥ 80% | 
COCCNC(=S)N1CCOC1=NCc1cccs1 [Beispiel 42] | 2.84 | ≥ 80% | 
CNC(=S)N1CCOC1=NCc1ccco1 [Beispiel 91] | 1.89 |  | 
COCCNC(=S)N1CCOC1=NCc1ccco1 [Beispiel 93] | 2.84 |  | 
FC(F)(F)CNC(=S)N1CCOC1=NCc1ccco1 [Beispiel 94] | 3.29 |  | 
CC(N=C1NCCO1)c1ccco1 (stereo not drawn) [Beispiel 95] |  |  | ≥ 80%
CNC(=S)N1CCOC1=NC(C)c1cc2ccccc2o1 (stereo not drawn) [Beispiel 104] | 3.64 |  | 
CC(N=C1OCCN1C(=S)NCC(F)(F)F)c1cc2ccccc2o1 (stereo not drawn) [Beispiel 107] | 4.47 |  | 
CCOC(=O)CNC(=S)N1CCOC1=NCc1ccc(Cl)nc1 [Beispiel 188] | 2.54 |  | 
CNC(=S)N1CCOC1=NC(C)c1ccnc(Cl)c1 (stereo not drawn) [Beispiel 195] | 2.58 |  | 
CCOC(=O)CNC(=S)N1CCOC1=NC(C)c1ccnc(Cl)c1 (stereo not drawn) [Beispiel 198] | 3.14 |  | 

Further lines, with some results ahead:

chromatographic logP (logP (HCOOH)) | Structure (SMILES) | mortality at 500 g/ha (Myzus persicae; [1]) | mortality at 500 g/ha (Myzus persicae; in Brassica rapa)
1.26 | CCNC(=S)N1CCO/C1=N/C(C)c1ccccn1 (stereo not drawn) [Beispiel 2, (2E)-N-ethyl-2-[(1-pyridin-2-ylethyl)imino]-1,3-oxazolidine-3-carbothioamid] | ≥ 80% | 
1.12 | COCCNC(=S)N1CCOC1=NC(C)c1ccccn1 (stereo not drawn) [Beispiel 3] | ≥ 80% | 
3.69 | CCC(N=C1OCCN1C(=S)NCCOC)c1ccc(C(F)(F)F)cn1 (stereo not drawn) [Beispiel 6] |  | 
3.85 | CCNC(=S)N1CCOC1=NC(CC)c1ccc(C(F)(F)F)cn1 (stereo not drawn) [Beispiel 7] |  | 
1.14 | CCNC(=S)N1CCOC1=NC(CC)c1ccc(C)c(C)n1 (stereo not drawn) [Beispiel 10] |  | 
1.33 | CCC(N=C1OCCN1C(=S)NCCOC)c1ccc(C)c(C)n1 (stereo not drawn) [Beispiel 11] |  | 
1.53 | CCNC(=S)N1CCOC1=NC(CC)c1ccccn1 (stereo not drawn) [Beispiel 13] |  | 
1 | COCCNC(=S)N1CCOC1=NC(C)c1ccncc1 (stereo not drawn) [Beispiel 19] |  | 
4.48 | CCC(N=C1OCCN1C(=S)NCCOC)c1cc(Br)cs1 (stereo not drawn) [Beispiel 30] |  | 
4.72 | CCNC(=S)N1CCOC1=NC(CC)c1cc(Br)cs1 (stereo not drawn) [Beispiel 31] | ≥ 80% | 
2.56 | CCNC(=S)N1CCOC1=NCc1ccsc1 [Beispiel 33] | ≥ 80% | 
1.45 | CCn1ccc(C(C)N=C2OCCN2C(=S)NC)n1 (stereo not drawn) [Beispiel 76] |  | 
3.46 | CCC(N=C1OCCN1C(=S)NC)c1cccs1 (stereo not drawn) [Beispiel 86] | ≥ 80% | 
4.06 | CCNC(=S)N1CCOC1=NC(CC)c1cccs1 (stereo not drawn) [Beispiel 87] | ≥ 80% | 
3.71 | CCC(N=C1OCCN1C(=S)NCCOC)c1cccs1 (stereo not drawn) [Beispiel 88] | ≥ 80% | 
2.58 | CCNC(=S)N1CCOC1=NCc1ccco1 [Beispiel 92] |  | 
4.18 | CCNC(=S)N1CCOC1=NC(C)c1cc2ccccc2o1 (stereo not drawn) [Beispiel 105] |  | 
3.9 | COCCNC(=S)N1CCOC1=NC(C)c1cc2ccccc2o1 (stereo not drawn) [Beispiel 106] |  | 
4.96 | CCNC(=S)N1CCOC1=NC(CC)c1ccc(Cl)s1 (stereo not drawn) [Beispiel 108] |  | 
3.07 | CCNC(=S)N1CCOC1=NC(C)c1ccnc(Cl)c1 (stereo not drawn) [Beispiel 196] |  | 
2.83 | COCCNC(=S)N1CCOC1=NC(C)c1ccnc(Cl)c1 (stereo not drawn) [Beispiel 197] |  | 
